The record followed here is PMC10590756, “Glutarate regulates T cell metabolism and anti-tumour immunity” (Nature Metabolism, 2023).

One experiment has as its system human CD8^+ T cells. The experiment is described as follows: Memory populations (CCR7/CD45RO) of human CD8^+ T cells by flow cytometry. The experiment is classed as cell-based. As to the method: This contrasts with octyl ester S-2HG, which decreases cell growth from 400 µM (Extended Data Fig. 1c).
Human PBMCs were obtained from NHSBT: Addenbrooke’s Hospital, Cambridge, UK or the Karolinska Hospital Service, Sweden. Ethical approval was obtained from the East of England-Cambridge Central Research Ethics Committee (06/Q0108/281) and consent was obtained from all participants. PBMCs from healthy donors were isolated from blood using discontinuous plasma Percoll gradients. Naive CD8^+ T cells were isolated using the Naive CD8^+ T Cell Isolation Kit (catalogue no. 130-093-244, Miltenyi Biotec), in accordance with the manufacturer’s instructions. Total CD8^+ T cells were purified by either positive or negative magnetic bead sorting (catalogue nos. 130-045-201 and 130-096-495, Miltenyi Biotec). All human CD8^+ T cells were activated with anti-human CD3/CD28 Dynabeads (catalogue no. 11131D, Thermo Fisher Scientific) at a 1:1 cell:bead ratio and cultured in complete RPMI 1640 supplemented with 10% FCS, 100 U ml^−1 penicillin, 100 µg ml^−1 streptomycin and 30 U ml^−1 interleukin-2 (IL-2) (catalogue no. 11147528001, Sigma-Aldrich).
Single-cell suspensions were stained with LIVE/DEAD Fixable Near-IR Dead Cell Stain Kit (catalogue no. 10119, Thermo Fisher Scientific) followed by surface and intracellular staining with fluorochrome-labelled antibodies (Supplementary Tables 1 and 2). Staining of cytoplasmic and nuclear antigens was performed using the Cytofix/Cytoperm Fixation/Permeabilization Kit (catalogue no. 554714, BD Biosciences) and the Transcription Factor Buffer Set (catalogue no. 562725, BD Biosciences), respectively. For the proliferation assays, cells were loaded with CellTrace Violet (catalogue no. C34557, Thermo Fisher Scientific) according to the manufacturer’s instructions. Samples were acquired on an Aurora (Cytek Biosciences).
In general terms: In flow cytometry, cells or beads pass a laser one at a time.

A further experiment concerns the target T1, human TET2 enzyme (Homo sapiens, UniProt Q6N021).
T1 construct: purchased BPS Bioscience 50162
The experiment in a line: Cell-free TET2 enzymatic activity assay. The experiment is classed as biochemical. As to the method: A total of 2 nM of the human TET2 enzyme (catalogue no. 50162, BPS Bioscience) or 4 nM of the human KDM4C enzyme (catalogue no. 50105, BPS Bioscience) was incubated with the substrate of 30 nM single-stranded DNA (ssBiotin 26 nt Me-C Oligo, Genscript), in the presence of αKG (catalogue no. K3752, Sigma-Aldrich), 10 µM ammonium iron(II) sulphate hexahydrate (catalogue no. F3754, Sigma-Aldrich) in assay buffer (50 mM HEPES (catalogue no. 15630-080, Gibco), pH 7.0, 100 mM NaCl, 0.01% Pluronic F-127, 1 mM TCEP (S16054, Shanghai Yuanye Bio-Technology Company), 2 mM ascorbic acid (A5960, Sigma-Aldrich), 0.2 mg/ml BSA (catalogue no. B2064, Sigma-Aldrich) and 1,000 U ml^−1 catalase (catalogue no. C40, Sigma-Aldrich)). The concentration of αKG used for the TET2 standard and competitive assays was 115 µM and 4,500 µM, respectively. The concentration of αKG used for the KDM4C standard and competitive assays was 10 µM and 50 µM, respectively. The concentration of αKG used in the standard assay was calculated for each enzyme batch and is the concentration of substrate at which half the maximum reaction rate is achieved. DEG and glutaric acid were used in threefold serial dilution and the maximum concentration used was 5 mM. The pre-incubation time of the inhibitors with the TET2 mixture was 30 min at room temperature. The reaction step was at room temperature for 90 min. The product was detected by using a 5 nM anti-5hmC antibody (catalogue no. 39999, Active Motif), 5 nM Eu-Protein A (catalogue no. 61PRAKLB, Cisbio), 6.25 nM streptavidin-Alexa Fluor 647 (catalogue no. S21374, Thermo Fisher Scientific) and 10 mM EDTA (catalogue no. 0369, Sigma-Aldrich). For the standard curve, the ssBiotin 26 nt HydMe-C Oligo was used. The assays were performed in technical duplicates in a 384-well plate. Inhibitor analysis was performed within the linear range of catalysis.
The percentage of inhibition was calculated with the following formula: inhibition% = (1−(signal value per well−average low control)/(average high control−average low control)) × 100. Data were fitted using Prism (GraphPad Software) with a four-parameter equation via ‘log(inhibitor) versus response−variable slope’ model.

For the next experiment, the target named is T2, human KDM4C enzyme (Homo sapiens, UniProt Q9H3R0).
T2 construct: purchased BPS Bioscience 50105
T2 sequence (Q9H3R0 2-372 limits assumed): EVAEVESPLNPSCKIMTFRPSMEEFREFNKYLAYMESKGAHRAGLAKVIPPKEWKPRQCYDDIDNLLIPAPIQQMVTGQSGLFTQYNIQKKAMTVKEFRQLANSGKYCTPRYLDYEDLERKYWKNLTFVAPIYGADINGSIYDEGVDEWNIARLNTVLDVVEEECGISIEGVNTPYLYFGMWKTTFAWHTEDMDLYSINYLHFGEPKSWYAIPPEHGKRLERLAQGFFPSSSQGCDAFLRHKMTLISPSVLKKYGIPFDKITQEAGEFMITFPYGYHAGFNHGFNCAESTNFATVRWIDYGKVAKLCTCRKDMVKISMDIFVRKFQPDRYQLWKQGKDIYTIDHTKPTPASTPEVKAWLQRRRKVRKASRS
The experiment in a line: Cell-free KDM4C enzymatic activity assay. In kind it is biochemical. As to the method: A total of 2 nM of the human TET2 enzyme (catalogue no. 50162, BPS Bioscience) or 4 nM of the human KDM4C enzyme (catalogue no. 50105, BPS Bioscience) was incubated with the substrate of 30 nM single-stranded DNA (ssBiotin 26 nt Me-C Oligo, Genscript), in the presence of αKG (catalogue no. K3752, Sigma-Aldrich), 10 µM ammonium iron(II) sulphate hexahydrate (catalogue no. F3754, Sigma-Aldrich) in assay buffer (50 mM HEPES (catalogue no. 15630-080, Gibco), pH 7.0, 100 mM NaCl, 0.01% Pluronic F-127, 1 mM TCEP (S16054, Shanghai Yuanye Bio-Technology Company), 2 mM ascorbic acid (A5960, Sigma-Aldrich), 0.2 mg/ml BSA (catalogue no. B2064, Sigma-Aldrich) and 1,000 U ml^−1 catalase (catalogue no. C40, Sigma-Aldrich)). […] The concentration of αKG used in the standard assay was calculated for each enzyme batch and is the concentration of substrate at which half the maximum reaction rate is achieved. […] The product was detected by using a 5 nM anti-5hmC antibody (catalogue no. 39999, Active Motif), 5 nM Eu-Protein A (catalogue no. 61PRAKLB, Cisbio), 6.25 nM streptavidin-Alexa Fluor 647 (catalogue no. S21374, Thermo Fisher Scientific) and 10 mM EDTA (catalogue no. 0369, Sigma-Aldrich). […]
The percentage of inhibition was calculated with the following formula: inhibition% = (1−(signal value per well−average low control)/(average high control−average low control)) × 100. […]

For experiment [1], the system named is HIF-P4H activity against pFLAG-Gal4-mHIF-1α NTAD. The experiment is described as follows: HIF-PH activity luciferase reporter assay in MEFs. In kind it is cell-based, mouse. An excerpt:
To test HIF-P4H inhibition via DEG treatment in a cellular system, we used a luciferase reporter assay driven by a Gal4 response element (GRE-luc), pFLAG-Gal4-mHIF-1α N-terminal transcription activation domain (NTAD)[35]. The NTAD contains proline residues that are hydroxylated by HIF-P4H enzymes to target the protein for degradation; thus, luciferase expression in this assay is controlled by HIF-P4H hydroxylation activity against the pFLAG-Gal4-mHIF-1α NTAD.
MEFs were transiently transfected using Lipofectamine 2000 (Thermo Fisher Scientific) with 20 ng per expression plasmid for 2 × 10^4 cells per well in a 96-well plate. Cells were treated with transfection mixes for 8 h.
Generation of plasmids for the HIF-PH activity luciferase reporter assay has been described previously: luciferase reporter driven by GRE-luc pFLAG-Gal4-mHIF-1α NTAD[35]. […] After 8 h of transient transfection with expression plasmids, cells were treated with experimental medium containing metabolites and drugs as described in the figure legends for 16 h; then, the luciferase signal assessed using the Steady-Glo Luciferase Assay System (Promega Corporation) detected using a luminometer. […]
Background: Reporter assays use an easily measured gene product as a stand-in for the process of interest.

As for `CCOC(=O)CCCC(=O)OCC` [DEG, Diethyl glutarate], in the experiment on human CD8^+ T cells (7 days of culture with DEG), the “TCM population (CCR7^hiCD45RO^hi)” value is recorded as “increased the TCM population” and the “effector memory T (TEM) cell population (CCR7^loCD45RO^hi)” value was “decreased”. Further, at human TET2 enzyme (cell-free, increasing concentrations, maximum 5 mM), the TET2 inhibition result was “did not inhibit”. Moreover, the KDM4C inhibition result on human KDM4C enzyme (cell-free, DEG alone) is “not capable of inhibiting”. In experiment [1] (MEFs, 16 h, increasing concentrations of DEG), the “cellular HIF-P4H activity” value is “can inhibit”.

With `O=C(O)CCCC(=O)O` [glutarate, glutaric acid], in the experiment with human CD8^+ T cells (glutarate alone (not esterified), higher doses, 10 days of culture), the TCM populations result is given as “capable of increasing TCM populations”. In addition, the IC50 (as a rule, the concentration that inhibits the measured activity by half) at human TET2 enzyme (IC50 TET2 + 40× αKG, αKG 4,500 µM (competitive assay)) is around 5000 µM; on human TET2 enzyme (IC50 recombinant TET2, cell-free) it was 1500 µM; at human KDM4C enzyme, 1000 µM. Further, the “mode of TET2 inhibition” value on human TET2 enzyme (reduced inhibition with increased levels of αKG) is reported as “competitive with αKG”. In addition, in experiment [1] (MEFs treated 16 h with DEG and dimethyl αKG), the “mode of HIF-P4H-1 inhibition” value is on record as “αKG-competitive”.
